The source of these data is patent US10118936B2, “Arginase inhibitors and methods of use” (ASTRAZENECA AB, priority 2009, dated 2018).

Test [1] relates to erectile response. The following applies: live male rabbits; cited from earlier work.
Test [2] concerns corpus cavernosum of the diabetic person. The following applies: ex vivo; cited from earlier work.
Test [3] deals with T1, human arginase II (hArgII) (Homo sapiens, UniProt P78540).
T1 sequence (P78540 23-354): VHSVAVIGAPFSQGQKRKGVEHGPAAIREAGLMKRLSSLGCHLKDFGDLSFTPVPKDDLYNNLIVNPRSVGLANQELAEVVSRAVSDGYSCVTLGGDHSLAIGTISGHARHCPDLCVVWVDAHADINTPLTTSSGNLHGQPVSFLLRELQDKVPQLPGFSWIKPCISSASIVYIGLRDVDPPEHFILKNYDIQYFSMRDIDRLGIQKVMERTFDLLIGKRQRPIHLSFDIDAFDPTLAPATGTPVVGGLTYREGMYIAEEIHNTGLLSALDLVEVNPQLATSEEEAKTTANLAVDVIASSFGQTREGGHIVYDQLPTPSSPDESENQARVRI
The experiment in a line: QuantiChrom colorimetric arginase inhibition assay, human arginase II. The following applies: IC50 from 12-concentration curve converted to Ki by Cheng-Prusoff equation. It counts as biochemical. The method, then: (§1) Quantitative determination of arginase activity was performed by a colorimetric method using the QuantiChrom™ Arginase Assay Kit available from BioAssay Systems (Hayward, Calif., Catalog No. DARG-200), which was used according to the manufacture's protocol. Briefly, the method utilizes a chromogen that forms a colored complex specifically with urea produced in the arginase reaction. […] The intensity of the color is directly proportional to the arginase activity in the sample.
(§2) The rate of urea production was measured in the presence of twelve different concentrations of each potential inhibitor compound. The half maximal inhibitory concentration (IC50) was determined by constructing a dose-response curve. As IC50 values are dependent upon the measurement conditions, the IC50 values are converted to the inhibitor binding affinity (Ki) using the Cheng-Prusoff equation and the measured affinity constant (Km) of L-arginine.

For test [4], the system named is rabbit and human penile corpus cavernosum. The conditions noted are these: cited from earlier work.
Test [5] has as its system genitalia engorgement response. The following applies: live female rabbits; cited from earlier work.
Test [6] deals with airway hyperresponsiveness. The following applies: guinea pigs, allergic asthma model, nebulizer treatment; cited from earlier work.
The test system of test [7] is experimental autoimmune encephalomyelitis. The following applies: cited from earlier work.
For test [8], the target named is T2, human arginase I (hArgI) (Homo sapiens, UniProt P05089).
T2 sequence (P05089 1-322): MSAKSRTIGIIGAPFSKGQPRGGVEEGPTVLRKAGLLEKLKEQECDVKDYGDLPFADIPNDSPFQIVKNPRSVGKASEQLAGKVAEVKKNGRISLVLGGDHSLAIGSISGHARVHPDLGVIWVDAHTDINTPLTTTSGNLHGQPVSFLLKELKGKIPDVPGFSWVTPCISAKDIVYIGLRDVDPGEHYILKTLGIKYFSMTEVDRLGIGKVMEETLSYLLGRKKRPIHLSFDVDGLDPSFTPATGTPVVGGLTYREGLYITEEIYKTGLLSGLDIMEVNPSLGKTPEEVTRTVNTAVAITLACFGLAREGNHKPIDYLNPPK
Kind of test: QuantiChrom colorimetric arginase inhibition assay, human arginase I. The conditions noted are these: IC50 from 12-concentration curve converted to Ki by Cheng-Prusoff equation. It counts as biochemical. As to the method: as §1, §2

Test [9] relates to opossum internal anal sphincter muscle. The conditions noted are these: cited from earlier work.
The test system of test [10] is microvasculature. The conditions noted are these: subcutaneous administration in humans; cited from earlier work.

pKi: −log10 of the molar value.

By pKi is commonly meant the Ki on a negative log10 scale, so that one unit is a factor of ten. Lower therefore signals a large Ki. With `N[C@@H](CCCCB(O)O)C(=O)O` [ABH, 2(S)-amino-6-borono-hexanoic acid], in test [1], the erectile response result was “enhances the erectile response in live male rabbits”. Besides, the NO biosynthesis result in test [2] was “restores NO biosynthesis”. Moreover, the pKi in test [3] and in test [8] was 8.00 to 10.00 throughout. Also, the “NO-dependent relaxation of corpus cavernosum” value in [4] is reported as “enhances the NO-dependent relaxation of this tissue”. For the same compound, the “engorgement response in the genitalia” value in test [5] is “enhances the engorgement response in the genitalia of live female rabbits”. In [6], the airway hyperresponsiveness entry was “prevents airway hyperresponsiveness”. Moreover, in [7], the disease score result was “improves the disease score of animals”. Moreover, in test [9], the “relaxation of internal anal sphincter muscle” value is given as “relax this muscle”.

For the compound S-(2-boronoethyl)-1-cysteine [BEC], in [10], the vasodilation and circulation result is “vasodilatory and enhances circulation”.
